In assay [1] the target is glucosylceramide synthase (GCS) (Canis lupus familiaris, UniProt A0A8I3MXG6). Description: GCS Enzymatic Assay (MDCK lysates). It counts as biochemical, canine. The note with it: MDCK cell lysate, C6-NBD-Ceramide, 37° C. for 1 hour, LC/MS; read-out: Assay 1 (Enzyme Assay; MDCK lysates) IC50. Here is the method: Madin-Darby canine kidney (MDCK) cell lysate was prepared using M-PER Mammalian Protein Extraction Reagent (Thermal Scientific) in the presence of a protease inhibitor cocktail (Roche). Protein concentration was determined using BCA assay kit (Pierce). […] 0.1% DMSO was used as mock treatment or control. The reaction was terminated by adding 100 μL acetonitrile solution and subjected to LC/MS analysis.
The quantitative analysis of NBD-Ceramide and glucosylceramide was performed on a Shimadzu ultra-fast liquid chromatography (Shimadzu, Japan) coupled with API 4000 triple quadrupole mass spectrometer (Applied Biosystems, Concord, Ontario, Canada). Sample separation was conducted on a Waters Xbridge™ BEH130 C18, 100 mm×4.6 mm i.d, 3.5 μm (Milford, Mass., USA). The mobile phase consisted of water and acetonitrile supplemented with 0.1% formic acid (v/v). The flow rate was 1.0 mL/min. The initial mobile phase was 20% acetonitrile and was ramped in a linear fashion to 50% acetonitrile in 0.4 min. From 0.4 to 1.5 min, the gradient was ramped to 98% acetonitrile, and then was held at […] until 8.0 min. Acetonitrile was reset to 20% in 1.5 min, and maintained until 10.0 min. The total run time was 10.0 min. The MS/MS detection was performed in ESI positive mode. […] The cell lysate was diluted with equal volume of acetonitrile. Aliquots of 50 μL diluted samples were added to 1.5 mL tubes, and 100 μL of acetonitrile containing internal standard (100 ng/mL tolbutamide) were added for protein precipitation. The mixture were vortexed and then centrifuged at 13000 rpm for 10 min. 70 μL of supernatant were mixed with 140 μL of H2O and the final solution were injected for LC/MS/MS analysis and IC50's and/or percent inhibitions calculated.

A further assay concerns K562 cells. Description: K562 Cell-Based Assay. The conditions noted are these: Homo sapiens, NBD-Ceramide, LCMS, read-out: Assay 2 (Cellular Assay; K562 cells) IC50. The method, then: This assay was modified based on the study by Gupta et al. (J. Lipid Res. 2010, 51, 866). K562 cells were seeded into 12-well plates at 3×10^5 cells/well/mL in RPMI-1640 medium with 5% FBS and incubated at 37° C. for 24 h. One μL of a compound described herein at desired concentration (10 mM, 1 mM, 0.1 mM, 0.01 mM, 0.001 mM and 0.0001 mM in DMSO) or DMSO was added into the corresponding well and mixed. Cells were incubated at 37° C. for 4 h. Then 100 μL of RPMI-1640 medium containing 110 μM of NBD-Ceramide, 11% BSA, 5% FBS, and corresponding concentration of a compound described herein was added into each well and mixed. Cells were incubated for additional 0.5 h at 37° C., followed by washing the cells with ice-cold PBS (pH 7.4) twice with centrifugation and resuspended with 50 μL cold PBS+1% Triton X-100. The cell lysate was sonicated for 15 min before adding equal volume of methanol for LCMS analysis. A small aliquot of cell lysate was used to determine protein concentration by BCA assay kit. The HPLC equipment and methods used in Assay 1 were used in this assay as well and IC50's were calculated.

glucosylceramide synthase (GCS), sequence (A0A8I3MXG6 1-394): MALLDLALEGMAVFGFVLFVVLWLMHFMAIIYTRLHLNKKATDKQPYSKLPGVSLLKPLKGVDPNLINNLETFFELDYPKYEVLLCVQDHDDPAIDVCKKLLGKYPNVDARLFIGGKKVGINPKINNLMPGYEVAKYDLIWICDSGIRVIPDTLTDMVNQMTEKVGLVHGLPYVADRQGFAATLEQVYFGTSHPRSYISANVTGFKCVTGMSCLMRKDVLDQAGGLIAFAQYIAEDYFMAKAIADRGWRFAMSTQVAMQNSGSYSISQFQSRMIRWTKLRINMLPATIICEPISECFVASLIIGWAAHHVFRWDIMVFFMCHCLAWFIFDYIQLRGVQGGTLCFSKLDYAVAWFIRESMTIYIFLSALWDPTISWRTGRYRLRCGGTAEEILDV

In the case of `O=C(N[C@H](CN1CCCC1)[C@H](O)c1ccc(OC2CC2)c(Cl)c1)C1=NOCc2cc(-c3ccc(F)cc3)ccc21` [Example 1, N-((1R,2R)-1-(3-chloro-4-cyclopropoxyphenyl)-1-hydroxy-3-(pyrrolidin-1-yl)propan-2-yl)-7-(4-fluorophenyl)-1H-benzo[d][1,2]oxazine-4-carboxamide], the IC50 was less than 0.01 µM in assay [1] and no more than 0.01 µM in the assay with K562 cells. For `O=C(N[C@H](CN1CCCC1)[C@H](O)c1ccc(OC2CC2)c(F)c1)C1=NOCc2cc(-c3ccc(F)cc3)ccc21` [Example 2, N-((1R,2R)-1-(4-cyclopropoxy-3-fluorophenyl)-1-hydroxy-3-(pyrrolidin-1-yl)propan-2-yl)-7-(4-fluorophenyl)-1H-benzo[d][1,2]oxazine-4-carboxamide], in that order: less than 0.01 µM and no more than 0.01 µM. On the same counts, the results for `O=C(N[C@H](CN1CCCC1)[C@H](O)c1cc(F)c2c(c1)OCCO2)C1=NOCc2cc(-c3ccc(F)cc3)ccc21` [Example 3, N-((1R,2R)-1-(8-fluoro-2,3-dihydrobenzo[b][1,4]dioxin-6-yl)-1-hydroxy-3-(pyrrolidin-1-yl)propan-2-yl)-7-(4-fluorophenyl)-1H-benzo[d][1,2]oxazine-4-carboxamide] are less than 0.01 µM and no more than 0.01 µM. As to `O=C(N[C@H](CN1CCCC1)[C@H](O)c1ccc(OC2CC2)cc1)C1=NOCc2cc(-c3ccc(F)cc3)ccc21` [Example 4, N-((1R,2R)-1-(4-cyclopropoxyphenyl)-1-hydroxy-3-(pyrrolidin-1-yl)propan-2-yl)-7-(4-fluorophenyl)-1H-benzo[d][1,2]oxazine-4-carboxamide], the IC50 in assay [1] was 0.01 to 0.1 µM; in the assay with K562 cells it was no more than 0.01 µM. On the same counts, the results for `O=C(N[C@H](CN1CCC1)[C@H](O)c1ccc(OC2CC2)c(Cl)c1)C1=NOCc2cc(-c3ccc(F)cc3)ccc21` [Example 5, N-((1R,2R)-3-(azetidin-1-yl)-1-(3-chloro-4-cyclopropoxyphenyl)-1-hydroxypropan-2-yl)-7-(4-fluorophenyl)-1H-benzo[d][1,2]oxazine-4-carboxamide] are 0.01 to 0.1 µM and no more than 0.01 µM.

Regarding `O=C(N[C@H](CN1CCC1)[C@H](O)c1ccc(OC2CC2)cc1)C1=NOCc2cc(-c3ccc(F)cc3)ccc21` [Example 6, N-((1R,2R)-3-(azetidin-1-yl)-1-(4-cyclopropoxyphenyl)-1-hydroxypropan-2-yl)-7-(4-fluorophenyl)-1H-benzo[d][1,2]oxazine-4-carboxamide], the IC50 in assay [1] was 0.01 to 0.1 µM; in the assay with K562 cells, no more than 0.01 µM. Turning to `O=C(N[C@H](CN1CCC1)[C@H](O)c1ccc(OC2CC2)c(F)c1)C1=NOCc2cc(-c3ccc(F)cc3)ccc21` [Example 7, N-((1R,2R)-3-(azetidin-1-yl)-1-(4-cyclopropoxy-3-fluorophenyl)-1-hydroxypropan-2-yl)-7-(4-fluorophenyl)-1H-benzo[d][1,2]oxazine-4-carboxamide], the IC50 is less than 0.01 µM in assay [1] and no more than 0.01 µM in the assay with K562 cells.

As to `O=C(N[C@H](CN1CCCC1)[C@H](O)c1ccc(OC2CC2)c(F)c1)C1=NOCc2cc(-c3ccc(Cl)s3)ccc21` [Example 8, 7-(5-chlorothiophen-2-yl)-N-((1R,2R)-1-(4-cyclopropoxy-3-fluorophenyl)-1-hydroxy-3-(pyrrolidin-1-yl)propan-2-yl)-1H-benzo[d][1,2]oxazine-4-carboxamide], the figures for the IC50 (in assay [1]; in the assay with K562 cells) were less than 0.01 µM and no more than 0.01 µM, respectively. On the same counts, the results for `O=C(N[C@H](CN1CCC1)[C@H](O)c1ccc(OC2CC2)c(F)c1)C1=NOCc2cc(-c3ccc(Cl)s3)ccc21` [Example 9, N-((1R,2R)-3-(azetidin-1-yl)-1-(4-cyclopropoxy-3-fluorophenyl)-1-hydroxypropan-2-yl)-7-(5-chlorothiophen-2-yl)-1H-benzo[d][1,2]oxazine-4-carboxamide] are less than 0.01 µM and no more than 0.01 µM. With `O=C(N[C@H](CN1CCCC1)[C@H](O)c1ccc(OC2CC2)c(Cl)c1)C1=NOCc2cc(-c3ccc(Cl)s3)ccc21` [Example 10, N-((1R,2R)-1-(3-chloro-4-cyclopropoxyphenyl)-1-hydroxy-3-(pyrrolidin-1-yl)propan-2-yl)-7-(5-chlorothiophen-2-yl)-1H-benzo[d][1,2]oxazine-4-carboxamide], the values for the IC50 (in assay [1]; in the assay with K562 cells) were 0.01 to 0.1 µM and no more than 0.01 µM, respectively.

`O=C(N[C@H](CN1CCCC1)[C@H](O)c1ccc(OC2CC2)c(Cl)c1)C1=NOCc2c1sc1cc(Cl)ccc21` [Example 13, 7-chloro-N-((1R,2R)-1-(3-chloro-4-cyclopropoxyphenyl)-1-hydroxy-3-(pyrrolidin-1-yl)propan-2-yl)-1H-benzo[4,5]thieno[2,3-d][1,2]oxazine-4-carboxamide]: the IC50 in assay [1] is 0.01 to 0.1 µM.

Consider `O=C(N[C@H](CN1CCC1)[C@H](O)c1ccc(OC2CC2)c(F)c1)C1=NOCc2c1sc1cc(Cl)ccc21` [Example 15, N-((1R,2R)-3-(azetidin-1-yl)-1-(4-cyclopropoxy-3-fluorophenyl)-1-hydroxypropan-2-yl)-7-chloro-1H-benzo[4,5]thieno[2,3-d][1,2]oxazine-4-carboxamide], for which, in assay [1], the IC50 is 0.1 to 1 µM. The same measure, in the same setting: next, `O=C(N[C@H](CN1CCC1)[C@H](O)c1ccc(OC2CC2)c(Cl)c1)C1=NOCc2c1sc1cc(Cl)ccc21` [Example 16, N-((1R,2R)-3-(azetidin-1-yl)-1-(3-chloro-4-cyclopropoxyphenyl)-1-hydroxypropan-2-yl)-7-chloro-1H-benzo[4,5]thieno[2,3-d][1,2]oxazine-4-carboxamide]: 0.1 to 1 µM.

Regarding `CC1(C)ON=C(C(=O)N[C@H](CN2CCCC2)[C@H](O)c2ccc(OC3CC3)c(Cl)c2)c2ccc(-c3ccc(F)cc3)cc21` [Example 23, N-((1R,2R)-1-(3-chloro-4-cyclopropoxyphenyl)-1-hydroxy-3-(pyrrolidin-1-yl)propan-2-yl)-7-(4-fluorophenyl)-1,1-dimethyl-1H-benzo[d][1,2]oxazine-4-carboxamide], the IC50 in assay [1] is 0.1 to 1 µM. On the same count and under the same terms, the value for `O=C(N[C@H](CN1CCC1)[C@H](O)c1ccc(OC2CC2)cc1)C1=NCCc2cc(-c3ccc(F)cc3)ccc21` [Example 40, N-((1R,2R)-3-(azetidin-1-yl)-1-(4-cyclopropoxyphenyl)-1-hydroxypropan-2-yl)-6-(4-fluorophenyl)-3,4-dihydroisoquinoline-1-carboxamide] was 0.01 to 0.1 µM; that for `CC1(C)Cc2cc(-c3ccc(F)cc3)ccc2C(C(=O)N[C@H](CN2CCCC2)[C@H](O)c2ccc(OC3CC3)c(Cl)c2)=N1` [Example 41, N-((1R,2R)-1-(3-chloro-4-cyclopropoxyphenyl)-1-hydroxy-3-(pyrrolidin-1-yl)propan-2-yl)-6-(4-fluorophenyl)-3,3-dimethyl-3,4-dihydroisoquinoline-1-carboxamide] was 0.1 to 1 µM. As to `O=C(N[C@H](CN1CCCC1)[C@H](O)c1ccc(OC2CC2)c(Cl)c1)C1OCCc2cc(-c3ccc(F)cc3)ccc21` (stereo partly drawn) [Example 42, N-((1R,2R)-1-(3-chloro-4-cyclopropoxyphenyl)-1-hydroxy-3-(pyrrolidin-1-yl)propan-2-yl)-6-(4-fluorophenyl)isochroman-1-carboxamide], in assay [1], the IC50 was in the range of 0.1 to 1 µM. For `O=C(N[C@H](CN1CCCC1)[C@H](O)c1ccc(OC2CC2)c(Cl)c1)C1OCCc2c1sc1cc(Cl)ccc21` (stereo partly drawn) [Example 43, 7-chloro-N-((1R,2R)-1-(3-chloro-4-cyclopropoxyphenyl)-1-hydroxy-3-(pyrrolidin-1-yl)propan-2-yl)-3,4-dihydro-1H-benzo[4,5]thieno[2,3-c]pyran-1-carboxamide], the IC50 in assay [1] was in the range of 0.1 to 1 µM.

For the origin of these results see patent US10227312B2, “Glucosylceramide synthase inhibitors for the treatment of diseases” (BIOMARIN PHARMACEUTICAL INC., priority 2015, dated 2019).
